From paper PMC11554605, “Pharmacological differences between human and mouse P2X4 receptor explored using old and new tools” (Purinergic Signalling, 2024)
“Also recorded” adds a separate entry of the source. Read-outs that look alike come from different tables or passages of the source.

Columns and labels:
human P2X4 [1] = target: T1, human P2X4 (Homo sapiens, UniProt Q99571); assay: Intracellular Ca2+ assay, antagonists against Ca2+ responses evoked by EC80 ATP (1.5 µM) in 1321N1 cells expressing human P2X4; format: cell-based
T1 construct: expressed in transfected cells
T1 sequence (Q99571 1-388): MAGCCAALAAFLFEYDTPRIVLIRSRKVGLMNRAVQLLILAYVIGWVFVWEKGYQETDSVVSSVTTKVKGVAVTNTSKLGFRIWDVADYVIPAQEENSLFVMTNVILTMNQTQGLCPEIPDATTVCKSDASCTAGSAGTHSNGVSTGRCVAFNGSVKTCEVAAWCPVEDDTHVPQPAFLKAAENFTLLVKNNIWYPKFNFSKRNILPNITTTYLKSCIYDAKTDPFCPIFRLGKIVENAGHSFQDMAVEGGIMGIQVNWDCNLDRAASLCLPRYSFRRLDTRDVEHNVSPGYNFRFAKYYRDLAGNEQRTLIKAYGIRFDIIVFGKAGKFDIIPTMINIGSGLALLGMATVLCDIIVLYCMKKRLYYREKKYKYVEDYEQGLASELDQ

mouse P2X4 [2] = target: T2, mouse P2X4 (Mus musculus, UniProt Q9JJX6); assay: Intracellular Ca2+ assay, antagonists against Ca2+ responses evoked by EC80 ATP (1.5 µM) in 1321N1 cells expressing mouse P2X4; format: cell-based
T2 construct: expressed in transfected cells
T2 sequence (Q9JJX6 1-388): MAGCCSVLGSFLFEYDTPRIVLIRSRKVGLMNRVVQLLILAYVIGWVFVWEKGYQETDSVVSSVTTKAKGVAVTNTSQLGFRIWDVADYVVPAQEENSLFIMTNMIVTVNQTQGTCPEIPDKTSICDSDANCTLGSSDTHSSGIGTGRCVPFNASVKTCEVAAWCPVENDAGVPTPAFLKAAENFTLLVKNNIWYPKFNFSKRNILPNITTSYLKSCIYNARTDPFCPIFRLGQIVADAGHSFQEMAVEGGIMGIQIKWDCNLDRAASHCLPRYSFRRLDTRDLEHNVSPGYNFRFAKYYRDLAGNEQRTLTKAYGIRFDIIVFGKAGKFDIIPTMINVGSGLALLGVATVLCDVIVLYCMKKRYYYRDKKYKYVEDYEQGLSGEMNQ

human P2X4 [3] = target: T1, human P2X4; assay: Intracellular Ca2+ assay (Fura-2, FlexStation 3), agonist responses in 1321N1 cells stably expressing human P2X4; format: cell-based; settings: for Emax: 1321-N1, read-out: Efficacy Human (maximal response to ligand as a percentage of maximal response to ATP)
mouse P2X4 [4] = target: T2, mouse P2X4; assay: Intracellular Ca2+ assay (Fura-2, FlexStation 3), agonist responses in 1321N1 cells stably expressing mouse P2X4; format: cell-based; settings: for Emax: 1321-N1, read-out: Efficacy Mouse (maximal response to ligand as a percentage of maximal response to ATP); for EC50: 1321N1 cells expressing mouse P2X4, peak Ca2+ response
human P2X4 [5] = target: T1, human P2X4; settings: cited from earlier work
rat P2X4 = settings: cited from earlier work
mouse P2X4 [6] = target: T2, mouse P2X4; settings: cited from earlier work
[7] = 10 µM antagonist, vs 1.5 µM ATP
[8] = 100 µM antagonist, vs 1.5 µM ATP
[9] = 1321N1 cells expressing human P2X4, peak Ca2+ response, read-out: EC50 Human
[10] = 20 µM antagonist, vs 1.5 µM ATP
[11] = 30 µM antagonist, vs 1.5 µM ATP

## CC(C)c1cc(Br)c(NC(=O)Nc2cccnc2)c(Br)c1 [BX-430, 1-(2,6-Dibromo-4-isopropyl-phenyl)-3-(3-pyridyl)urea]
Human P2X4 [1]; [7]
  % inhibition Human: 96 ± 3% (10 µM)
Human P2X4 [1]; vs 1.5 µM ATP
  Antagonist action at human P2X4 (in words): abolished receptor activity
Mouse P2X4 [2]; [7]
  % inhibition Mouse: 0 ± 3% (10 µM)
Mouse P2X4 [2]; up to 100 µM
  Antagonist action at mouse P2X4 (in words): insensitive
Mouse P2X4 [2]; vs 1.5 µM ATP
  Antagonist action at mouse P2X4 (in words): not antagonised

## Nc1ccn([C@@H]2O[C@H](COP(=O)(O)OP(=O)(O)OP(=O)(O)O)[C@@H](O)[C@H]2O)c(=O)n1 [CTP, Cytidine 5′-triphosphate]
Human P2X4 [3]
  Emax: 67 ± 6%
Human P2X4 [3]; human P2X4
  Agonist action at human P2X4 (in words): partial agonist
Mouse P2X4 [4]
  Emax: 89 ± 5%
Mouse P2X4 [4]; mouse P2X4
  Agonist action at mouse P2X4 (in words): full agonist

## Cc1nc(/N=N/c2ccc(S(=O)(=O)O)cc2S(=O)(=O)O)c(COP(=O)(O)O)c(C=O)c1O [PPADS, Pyridoxalphosphate-6-azophenyl-2′,4′-disulfonic acid]
Human P2X4 [1]; [8]
  % inhibition Human: 98 ± 3% (100 µM)
Mouse P2X4 [2]; [8]
  % inhibition Mouse: 87 ± 16%(100 µM)
Human P2X4 [5]; ref 16-18
  Antagonist action at human P2X4 (literature): inhibit the human P2X4 receptor fully

## Nc1ncnc2c1ncn2C1OC(COP(=O)(O)OP(=O)(O)OP(=O)(O)O)C(OC(=O)c2ccc(C(=O)c3ccccc3)cc2)C1O (stereo not drawn) [BzATP, 2′(3′)-O-(4-Benzoylbenzoyl)adenosine 5′-triphosphate]
Human P2X4 [3]
  Emax: 35 ± 4%
Human P2X4 [3]; [9]
  EC50: 11 ± 2 µM
Human P2X4 [3]; human P2X4
  Agonist action at human P2X4 (in words): partial agonist
Mouse P2X4 [4]
  Emax: 27 ± 2%
  EC50: 24 ± 16 µM
Mouse P2X4 [4]; mouse P2X4
  Agonist action at mouse P2X4 (in words): partial agonist

## Nc1ncnc2c1ncn2[C@@H]1O[C@H](COP(=O)(O)OP(=O)(O)OP(=O)(O)O)[C@@H](O)[C@H]1O [ATP, adenosine 5′-triphosphate]
Human P2X4 [3]; [9]
  EC50: 0.747 ± 0.18 µM
Human P2X4 [3]; human P2X4
  EC80: 1.5 ± 0.3 µM
Mouse P2X4 [4]
  EC50: 0.565 ± 0.085 µM

## Nc1ncnc2c1ncn2C1OC(COP(=O)(O)CP(=O)(O)OP(=O)(O)O)C(O)C1O (stereo not drawn) [α,β-meATP, α,β-Methyleneadenosine 5′-triphosphate]
Human P2X4 [3]
  EC50: 7 ± 0.7 µM
  Emax: 15 ± 2%
Human P2X4 [3]; human P2X4
  Agonist action at human P2X4 (in words): can be activated; also recorded: weak partial agonist
Mouse P2X4 [4]
  Emax: 5 ± 2%
Mouse P2X4 [4]; mouse P2X4
  Agonist action at mouse P2X4 (in words): no significant effect

## Cc1ccc(C(=O)Nc2ccc(S(=O)(=O)O)c3cc(S(=O)(=O)O)cc(S(=O)(=O)O)c23)cc1NC(=O)c1cccc(NC(=O)Nc2cccc(C(=O)Nc3cc(C(=O)Nc4ccc(S(=O)(=O)O)c5cc(S(=O)(=O)O)cc(S(=O)(=O)O)c45)ccc3C)c2)c1 [suramin, 8,8′-{Carbonylbis[imino-3,1-phenylenecarbonylimino(4-methyl-3,1-phenylene)carbonylimino]}di(1,3,5-naphthalenetrisulfonic acid)]
Human P2X4 [1]; up to 100 µM
  Antagonist action at human P2X4 (in words): completely insensitive
Mouse P2X4 [2]; up to 100 µM
  Antagonist action at mouse P2X4 (in words): completely insensitive

## Cc1ccc(S(=O)(=O)N2c3ccccc3Oc3ccccc32)cc1 [PSB-12062, N-(p-methylphenylsulfonyl)phenoxazine]
Human P2X4 [1]; [10]
  % inhibition Human: 99 ± 4% (20 µM)
Human P2X4 [1]; vs 1.5 µM ATP
  Antagonist action at human P2X4 (in words): abolished activity
Mouse P2X4 [2]; [10]
  % inhibition Mouse: 59 ± 7% (20 µM)
Mouse P2X4 [2]; read-out: IC50 Mouse
  IC50: 3 ± 2 µM

## Nc1ncnc2c1ncn2[C@@H]1O[C@H](COP(=O)(O)OP(=O)(O)OP(=O)(O)O)[C@H]2OC3(O[C@H]21)C([N+](=O)[O-])=CC(=[N+]([O-])[O-])C=C3[N+](=O)[O-] (stereo partly drawn) [TNP-ATP, 2′,3′-O-(2,4,6-Trinitrophenyl)-ATP]
Human P2X4 [1]
  Antagonist action at human P2X4 (in words): completely inhibited
Human P2X4 [1]; [8]
  % inhibition Human: 94 ± 1% (100 µM)
Mouse P2X4 [2]
  IC50: 93 ± 4 µM
Mouse P2X4 [2]; [8]
  % inhibition Mouse: 43 ± 7% (100 µM)

## NS(=O)(=O)c1cc(NC(=O)Cc2ccccc2)ccc1Oc1cccc(Cl)c1 [BAY-1797, N-[4-(3-Chlorophenoxy)-3-sulfamoylphenyl]-2-phenylacetamide]
Mouse P2X4 [2]; [7]
  % inhibition Mouse: 99 ± 2% (10 µM)

## Nc1ncnc2c1ncn2[C@@H]1O[C@H](CO[P@](=O)(O)O[P@](=O)(O)O[P@@](=O)(O)S)[C@@H](O)[C@H]1O [ATPγS, Adenosine-5′-O-(3-thio-triphosphate)]
Human P2X4 [3]
  Emax: 9 ± 3%
Human P2X4 [3]; human P2X4
  Agonist action at human P2X4 (in words): did not activate; also recorded: not activated
Human P2X4 [3]; up to 300 µM
  Agonist action at human P2X4 (in words): does not activate
Mouse P2X4 [4]
  Emax: 45 ± 4%
  EC50: 18 ± 1 µM
Mouse P2X4 [4]; mouse P2X4
  Agonist action at mouse P2X4 (in words): partial agonist
Human P2X4 [5]; ref 33
  Agonist action at human P2X4 (literature): partial agonism

## CSc1nc(N)c2ncn([C@@H]3O[C@H](COP(=O)(O)OP(=O)(O)OP(=O)(O)O)[C@@H](O)[C@H]3O)c2n1 [2-MeSATP, 2-(Methylthio)adenosine 5′-triphosphate]
Human P2X4 [3]
  Emax: 57 ± 6%
Human P2X4 [3]; [9]
  EC50: 2 ± 0.2 µM
Human P2X4 [3]; human P2X4
  Agonist action at human P2X4 (in words): partial agonist
Mouse P2X4 [4]
  Emax: 65 ± 2%
  EC50: 8 ± 2 µM
Mouse P2X4 [4]; mouse P2X4
  Agonist action at mouse P2X4 (in words): partial agonist

## O=C1CN=C(c2cccc(Br)c2)c2oc3ccccc3c2N1 [5-BDBD, 5-(3-Bromophenyl)-1,3-dihydro-2H-benzofuro[3,2-e]-1,4-diazepin-2-one]
Rat P2X4; ref 37
  Antagonist action at rat P2X4 (literature): sensitivity
Human P2X4 [1]; [11]
  % inhibition Human: 97 ± 3% (30 µM)
Human P2X4 [1]; vs 1.5 µM ATP
  Antagonist action at human P2X4 (in words): completely inhibit
Mouse P2X4 [2]; [11]
  % inhibition Mouse: 10 ± 8% (30 µM)
Mouse P2X4 [2]; up to 100 µM
  Antagonist action at mouse P2X4 (in words): insensitive
Mouse P2X4 [2]; vs 1.5 µM ATP
  Antagonist action at mouse P2X4 (in words): not antagonised; also recorded: not an antagonist

## C#CCNP(=O)(O)OP(=O)(O)OP(=O)(O)OCC1OC(n2cnc3c(N)ncnc32)C(O)C1O (stereo not drawn) [γ-[(Propargyl)-imido]-ATP, Adenosine-5′-[γ-(propargyl)-imido]triphosphate]
Human P2X4 [3]
  Emax: 85 ± 5%
Human P2X4 [3]; [9]
  EC50: 20 ± 2 µM
Human P2X4 [3]; human P2X4
  Agonist action at human P2X4 (in words): partial agonism
Mouse P2X4 [4]
  Emax: 90 ± 11%
  EC50: 20 ± 2 µM
Mouse P2X4 [4]; mouse P2X4
  Agonist action at mouse P2X4 (in words): full agonist

## Nc1ncnc2c1ncn2[C@@H]1O[C@H](COP(=O)(O)OP(=O)(O)OP(=O)(O)OP(=O)(O)OC[C@H]2O[C@@H](n3cnc4c(N)ncnc43)[C@H](O)[C@@H]2O)[C@@H](O)[C@H]1O [Ap4A, Diadenosine tetraphosphate]
Rat P2X4; ref 36
  Agonist potency at rat P2X4 (literature): equipotent with ATP
Mouse P2X4 [6]; ref 17
  Agonist action at mouse P2X4 (literature): activates mouse P2X4 at low micromolar concentrations
Mouse P2X4 [6]; ref 35
  Agonist action at mouse P2X4 (literature): insensitive
Human P2X4 [3]; tested up to 1 mM
  Agonist action at human P2X4 (in words): did not activate
Mouse P2X4 [4]; mouse P2X4
  Agonist action at mouse P2X4 (in words): not an agonist
Mouse P2X4 [4]; tested up to 1 mM
  Agonist action at mouse P2X4 (in words): did not activate
Human P2X4 [5]; ref 35, ref 17
  Agonist action at human P2X4 (literature): activation of human P2X4 by Ap4A at nanomolar concentrations
